Consider eight compounds from US10219516B2, “Molecules having pesticidal utility, and intermediates, compositions, and processes, related thereto” (priority 2015, dated 2019).

Where two headings read alike, the source gives them in different places.

What all share (format): in vivo
Test [1] has as its system Beet Armyworm (Spodoptera exigua, LAPHEG). Put plainly: Bioassay on Beet Armyworm (BAW), 128-well diet tray assay. The method in brief: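 In a 128-well format, eight wells per compound received a surface dose of 50 μg/cm^2 on artificial diet. After drying, each well got one to five second instar larvae, held at 25° C. with 14:10 photoperiod. Mortality percentages after five to seven days were averaged.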

For test [2], the system named is Cabbage Looper (Trichoplusia ni, TRIPNI). As to the kind of experiment: Bioassay on Cabbage Looper (CL), 128-well diet tray assay. To be noted: Trichoplusia ni. The essentials: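 Second-instar larvae, one to five per well, placed on artificial diet treated with 50 μg/cm^2 test molecule in 90:10 acetone-water, dried before infestation. Held 5–7 days at 25° C, 14:10 light-dark; percent mortality averaged over eight wells.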

The test system of test [3] is Yellow Fever Mosquito (Aedes aegypti, AEDSAE). As to the kind of experiment: Bioassay on Yellow Fever Mosquito (YFM), 96-well plate larval assay. To be noted: for YFM rating: Yellow Fever Mosquito, 96-well plate larval assay; for YFM (Biological Results, rating): Species YFM (Yellow Fever Mosquito). The method in brief: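 Each well was scored for mortality after 3 days at room temperature under a non-evaporative lid. Test molecules came from DMSO masters (4000 ppm stock) diluted with water/acetone 90:10 and dispensed into six replicate plates, which were then infested with roughly 1-day-old larvae in liver-powder water.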

[4] abbreviates: Beet Armyworm, 128-well diet tray assay, read-out: BAW rating.
The mark [5] stands for this setting: Cabbage Looper, 128-well diet tray assay, read-out: CL rating.
The mark [6] stands for this setting: Species BAW (Beet Armyworm), read-out: BAW (Biological Results, rating).
Setting [7] is: Species CL (Cabbage Looper), read-out: CL (Biological Results, rating).

`CN1CCCc2cc(NC(=O)c3cc(NC(=O)[C@H]4[C@H](c5cc(Cl)cc(Cl)c5)C4(Cl)Cl)ccc3Cl)ccc21` (relative stereo) [F491, 2-Chloro-5-(trans)-(2,2-dichloro-3-(3,5-dichlorophenyl)cyclopropane-1-carboxamido)-N-(1-methyl-1,2,3,4-tetrahydroquinolin-6-yl)benzamide]: the pest or weed control at 50 µg/cm2 in test [1] (setting [4]) and in test [2] (setting [5]) was 50 to 100% throughout. Besides, the YFM rating result in test [3] was “A (80-100)”.
On to `CN(C(=O)c1cc(NC(=O)[C@H]2[C@H](c3cc(Cl)c(Cl)c(Cl)c3)C2(Cl)Cl)ccc1F)c1ccc(F)cc1F` (relative stereo) [F65, trans-5-(2,2-Dichloro-3-(3,4,5-trichlorophenyl)cyclopropane-1-carboxamido)-N-(2,4-difluorophenyl)-2-fluoro-N-methylbenzamide], for which the pest or weed control at 50 µg/cm2 in test [1] (setting [6]) and in test [2] (setting [7]) was 50 to 100% throughout. The “YFM (Biological Results, rating)” value in test [3] is listed as “A (80-100)”.
Take `Nc1c(F)cc(F)cc1NC(=O)c1cc(NC(=O)[C@H]2[C@H](c3ccc(F)c(Cl)c3)C2(Cl)Cl)ccc1Cl` [F420, N-(2-Amino-3,5-difluorophenyl)-2-chloro-5-((1R,3R)-2,2-dichloro-3-(3-chloro-4-fluorophenyl)cyclopropane-1-carboxamido)benzamide]: the pest or weed control at 50 µg/cm2 in test [1] (setting [4]) and in test [2] (setting [5]) was 50 to 100% throughout. Also, the YFM rating entry in test [3] is recorded as “A (80-100)”.
With `Cc1ccc2c(N)nn(C(=O)c3cc(NC(=O)[C@H]4[C@H](c5cc(Cl)cc(Cl)c5)C4(Cl)Cl)ccc3Cl)c2c1` (relative stereo) [F477, (trans)-N-(3-(3-Amino-6-methyl-1H-indazole-1-carbonyl)-4-chlorophenyl)-2,2-dichloro-3-(3,5-dichlorophenyl)cyclopropane-1-carboxamide], the pest or weed control at 50 µg/cm2 in test [1] (setting [4]) and in test [2] (setting [5]) was 50 to 100% in each case. Further, the YFM rating result in test [3] is recorded as “A (80-100)”.
Take `N#Cc1cc(Cl)ccc1NC(=O)c1cc(NC(=O)[C@H]2[C@H](c3cc(Cl)cc(Cl)c3)C2(Cl)Cl)ccc1Cl` (relative stereo) [F301, 2-Chloro-N-(4-chloro-2-cyanophenyl)-5-(trans-2,2-dichloro-3-(3,5-dichlorophenyl)cyclopropane-1-carboxamido)benzamide]: the pest or weed control at 50 µg/cm2 in test [1] (setting [6]) and in test [2] (setting [7]) was 50 to 100% each time. Besides, the “YFM (Biological Results, rating)” value in test [3] is recorded as “A (80-100)”.
On to `C=Cc1cc([C@H]2[C@H](C(=O)Nc3ccc(Cl)c(C(=O)Nc4ccc(F)cc4F)c3)C2(Cl)Cl)ccc1Cl` (relative stereo) [F351, 2-Chloro-5-(trans-2,2-dichloro-3-(4-chloro-3-vinylphenyl)cyclopropane-1-carboxamido)-N-(2,4-difluorophenyl)benzamide], for which the pest or weed control at 50 µg/cm2 in test [1] (setting [6]) and in test [2] (setting [7]) was 50 to 100% in each case. Also, the “YFM (Biological Results, rating)” value in test [3] is “A (80-100)”.
On to `O=C(Nc1ccc2nccn2c1)c1cc(NC(=O)C2C(c3cc(Cl)cc(Cl)c3)C2(Cl)Cl)ccc1Cl` (stereo not drawn) [F475, 2-Chloro-5-(trans)-2,2-dichloro-3-(3,5-dichlorophenyl)cyclopropane-1-carboxamido)-N-(imidazo[1,2-a]pyridin-6-yl)benzamide], for which the pest or weed control at 50 µg/cm2 in test [1] (setting [4]) and in test [2] (setting [5]) was 50 to 100% each time. The YFM rating result in test [3] was “A (80-100)”.
In the case of `Nc1cc(F)ccc1NC(=O)c1cc(NC(=O)[C@H]2[C@H](c3cc(Cl)cc(Cl)c3)C2(Cl)Cl)ccc1Cl` [F575, N-(2-Amino-4-fluorophenyl)-2-chloro-5-((1R,3R)-2,2-dichloro-3-(3,5-dichlorophenyl)cyclopropane-1-carboxamido)benzamide], the pest or weed control at 50 µg/cm2 in test [1] (setting [4]) and in test [2] (setting [5]) was 50 to 100% each time. The YFM rating result in test [3] is reported as “A (80-100)”.
